Laboratory results from BindingDB's records for doi:10.7270/Q2ZC817P (The Scripps Research Institute Molecular Screening Center, 2007).
Where a name gives a salt, the structure may show the parent alone.

biological target: Sphingosine 1-phosphate receptor 1 (Homo sapiens, UniProt P21453); assay: potentiators of S1P1 agonist response, dose response, cell-based, potentiator mode, 60K MLSMR set (AID 466); settings: not given
Sequence (P21453 whole entry): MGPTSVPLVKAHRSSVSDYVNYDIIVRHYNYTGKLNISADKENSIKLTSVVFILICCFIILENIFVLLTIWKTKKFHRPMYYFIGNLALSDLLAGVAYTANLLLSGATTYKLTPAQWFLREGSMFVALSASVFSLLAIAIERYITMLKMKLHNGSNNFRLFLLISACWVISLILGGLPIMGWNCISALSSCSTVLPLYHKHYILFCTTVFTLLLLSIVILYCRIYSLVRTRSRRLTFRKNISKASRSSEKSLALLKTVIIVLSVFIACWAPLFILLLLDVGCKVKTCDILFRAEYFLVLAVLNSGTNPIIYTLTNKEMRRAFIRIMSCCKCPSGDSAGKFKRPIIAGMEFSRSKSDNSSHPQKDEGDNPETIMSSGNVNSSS

| Compound | EC50 |
| --- | --- |
| CCOc1ccc(-c2nc(-c3ccccc3)no2)cc1OCC [5-(3,4-diethoxyphenyl)-3-phenyl-1,2,4-oxadiazole] | 0.107 µM |
| O=c1c(-c2ccc3c(c2)OCCO3)c(C(F)(F)F)oc2cc(O)cc(O)c12 [3-(2,3-dihydro-1,4-benzodioxin-6-yl)-5,7-bis(oxidanyl)-2-(trifluoromethyl)chromen-4-one] | 3.83 µM |
| Cc1ccc(-c2n[nH]c(=S)n2C)cc1 | > 95 µM |
| Cc1cc(C(=O)CSc2nnc(-c3ccco3)o2)c(C)n1-c1ccc2c(c1)OCCO2 [1-[1-(2,3-dihydro-1,4-benzodioxin-6-yl)-2,5-dimethyl-3-pyrrolyl]-2-[[5-(2-furanyl)-1,3,4-oxadiazol-2-yl]thio]ethanone] | 9.32 µM |
| CCCS(=O)(=O)c1nnnn1-c1cccc(OC)c1 [1-(3-methoxyphenyl)-5-(propylsulfonyl)-1H-tetrazole] | 3.19 µM |
| Cc1nnc(SCC(=O)N2CCC(c3noc4ccc(F)cc34)CC2)s1 [1-[4-(5-fluoranyl-1,2-benzoxazol-3-yl)piperidin-1-yl]-2-[(5-methyl-1,3,4-thiadiazol-2-yl)sulfanyl]ethanone] | 8.2 µM |
| CCC1CCCCN1C(=O)CSc1nnc(-c2c[nH]c3ccccc23)o1 (stereo unspecified) | 4.61 µM |
| CCOC(=O)CN1C(=O)C(C)(C)Oc2ccc(C(=O)Nc3ccccc3OC)cc21 [2-[3-keto-6-[(2-methoxyphenyl)carbamoyl]-2,2-dimethyl-1,4-benzoxazin-4-yl]acetic acid ethyl ester] | 3.12 µM |
| O=C(c1ccccc1)C(CCC(CN1CCOCC1)C(=O)c1ccccc1)CN1CCOCC1 (stereo unspecified) [2,5-bis(4-morpholinylmethyl)-1,6-diphenylhexane-1,6-dione;hydrochloride] | 4.14 µM |
| CCOc1ccc(-c2nnc(-c3ccco3)o2)cc1OCC [2-(3,4-Diethoxy-phenyl)-5-furan-2-yl-[1,3,4]oxadiazole] | 1.04 µM |
| COc1ccccc1-c1nc(-c2cccc(C)c2)no1 [5-(2-methoxyphenyl)-3-(3-methylphenyl)-1,2,4-oxadiazole] | 0.999 µM |
| CCn1c(SCC(=O)Nc2nc3ccc(C)cc3s2)nc2c(c1=O)SC(C)C2 (stereo unspecified) [2-[(3-ethyl-4-keto-6-methyl-6,7-dihydrothieno[3,2-d]pyrimidin-2-yl)thio]-N-(6-methyl-1,3-benzothiazol-2-yl)acetamide] | 7.72 µM |
| Cc1ccc(-n2ncc3c(N4CCCC(C)C4)ncnc32)c(C)c1 (stereo unspecified) [1-(2,4-dimethylphenyl)-4-(3-methylpiperidin-1-yl)-1H-pyrazolo[3,4-d]pyrimidine] | 8.81 µM |
| CCOc1ccc(-c2noc(-c3ccncc3)n2)cc1OCC [3-(3,4-diethoxyphenyl)-5-(4-pyridyl)-1,2,4-oxadiazole] | 0.428 µM |

The next lines start with the values.

| EC50 | Compound |
| --- | --- |
| 5.97 µM | CCCc1cc(C(=O)N2CCN(C(c3ccccc3)c3ccccc3)CC2)no1 [(4-benzhydrylpiperazin-1-yl)-(5-propyl-1,2-oxazol-3-yl)methanone] |
| 5.24 µM | Cc1ccnc(SCC(=O)Nc2sc3c(c2C#N)CCCC3)n1 [MLS000077260] |
| 1.27 µM | CCOc1ccccc1OCCCCCc1c(C)n[nH]c1C [MLS000043342] |
| 48.7 µM | CCOC(=O)Nc1ccc2c(c1)N(C(=O)CCN(C)C)c1ccccc1S2 [MLS000038082] |
| 9.78 µM | Cc1nc(NC(C)c2ccccc2)c2oc3ccccc3c2n1 (stereo unspecified) [(2-methylbenzofuro[3,2-d]pyrimidin-4-yl)-(1-phenylethyl)amine] |
| 6.36 µM | CCCC(=O)Nc1ccc(-c2nc3cc(C)ccc3o2)cc1 [MLS000061826] |
| 5.66 µM | Clc1ccccc1C1=Nn2c(nnc2-c2ccncc2)SC1 [6-(2-chlorophenyl)-3-(4-pyridyl)-7H-[1,2,4]triazolo[3,4-b][1,3,4]thiadiazine] |
| 1.49 µM | COc1ccc(-c2n[nH]cc2-c2ccc3c(c2)OCCO3)c(O)c1 [(6E)-6-[4-(2,3-dihydro-1,4-benzodioxin-6-yl)-1,2-dihydropyrazol-3-ylidene]-3-methoxycyclohexa-2,4-dien-1-one] |
| 1.75 µM | CCN(C(=O)C1CCCCC1)c1nnc(-c2cccnc2)s1 [Cyclohexanecarboxylic acid ethyl-(5-pyridin-3-yl-[1,3,4]thiadiazol-2-yl)-amide] |
| 8.44 µM | COC(=O)CS(=O)(=O)c1nnc([C@H](Cc2ccccc2)NC(=O)OC(C)(C)C)o1 [SMR000046685] |
| > 95 µM | Cc1noc(/C=C/N(C)C)c1S(=O)(=O)N1CCc2ccccc21 [(E)-2-[4-(2,3-dihydroindol-1-ylsulfonyl)-3-methyl-1,2-oxazol-5-yl]-N,N-dimethyl-ethenamine] |
| > 30 µM | O=S1(=O)C=C(Sc2nc3cc(Cl)ccc3o2)c2ccccc21 [SMR000019512] |
| 0.685 µM | COc1ccc(-c2nc(-c3ccc(NC(=O)c4ccncc4)cc3)no2)cc1OC [MLS000115086] |
| 6.46 µM | c1ccc2c(c1)oc1c(NCc3ccc4c(c3)OCO4)ncnc12 [MLS000057790] |
| 0.908 µM | O=C(Nc1nc2c(s1)CCCC2)c1cc2n(n1)C(C(F)(F)F)CC(C1CC1)N2 (stereo unspecified) [5-Cyclopropyl-7-trifluoromethyl-4,5,6,7-tetrahydro-pyrazolo[1,5-a]pyrimidine-2-carboxylic acid (4,5,6,7-tetrahydro-benzothiazol-2-yl)-amide] |
| 9.37 µM | Cc1nn(Cc2ccc(Cl)c(Cl)c2)c(C)c1NC(=O)c1cc(CC(C)C)on1 [MLS000116412] |
| > 10 µM | COc1ccc(-c2cn3c(C)c(C(=O)Nc4ccncc4)sc3n2)cc1 [6-(4-methoxyphenyl)-3-methyl-N-(4-pyridyl)imidazo[2,1-b]thiazole-2-carboxamide] |

same assay, conditions: inactive by the depositor's call

| Compound | EC50 |
| --- | --- |
| CCCOc1ccc(-c2nnc(-c3ccncc3)o2)cc1 [2-(4-propoxyphenyl)-5-(4-pyridyl)-1,3,4-oxadiazole] | 66.5 µM |
| Cc1onc(-c2ccccc2Cl)c1C(=O)Oc1cc(N)n(S(=O)(=O)c2ccc(F)cc2)n1 [3-(2-chlorophenyl)-5-methyl-4-isoxazolecarboxylic acid [5-amino-1-(4-fluorophenyl)sulfonyl-3-pyrazolyl] ester] | 20 µM |
| CCCCOc1ccc(S(=O)(=O)Nc2cc(OC)ccc2OC)cc1 [4-butoxy-N-(2,5-dimethoxyphenyl)benzenesulfonamide] | 12.1 µM |

Second part, the molecule after the results:

| EC50 | Compound |
| --- | --- |
| 12.7 µM | CCC(C)c1ccc2oc(-c3ccc(NC(=O)c4nnc[nH]4)cc3)nc2c1 (stereo unspecified) [N-[4-(5-sec-butyl-1,3-benzoxazol-2-yl)phenyl]-1H-1,2,4-triazole-3-carboxamide] |
| 17.2 µM | Cn1cccc1C(=O)OCc1cc(Cl)cc2c1OCOC2 [(6-chloranyl-4H-1,3-benzodioxin-8-yl)methyl 1-methylpyrrole-2-carboxylate] |
| 20.5 µM | COc1ccc2c(c1)-c1nc(NC(=O)c3cccs3)sc1CC2 [N-(8-methoxy-4,5-dihydrobenzo[e][1,3]benzothiazol-2-yl)-2-thiophenecarboxamide] |
| 11.2 µM | Cc1ccc(C(=O)Nc2nc(COc3ccccc3)cs2)s1 [5-methyl-N-[4-(phenoxymethyl)-1,3-thiazol-2-yl]thiophene-2-carboxamide] |
| 15.9 µM | Cc1noc(C)c1S(=O)(=O)N(CC(=O)Nc1ccc2c(c1)OCCO2)c1ccc(C(C)C)cc1 [MLS000117406] |
| 10.6 µM | Clc1ccc(CCNc2[nH]cnc3ncnc2-3)cc1 [SMR000017624] |
| 36.2 µM | COc1ccccc1-n1nnnc1SCc1cc2c(cc1Br)OCO2 [5-[(6-bromanyl-1,3-benzodioxol-5-yl)methylsulfanyl]-1-(2-methoxyphenyl)-1,2,3,4-tetrazole] |
